Activity calls are given as the source filed them. The rule behind the calls is not given here. Non-standard residues stand in square brackets, D forms with d. Residues, ends and D or L forms follow the SMILES beside them. pT = C[C@@H](OP(=O)(O)O)[C@H](N)C(=O)O
What was measured:
[1] = molecular target: T1, Serine/threonine-protein kinase PLK1 (Homo sapiens, UniProt P53350); experiment: Displacement of 5-carboxyfluorescein-labeled PBD-binding peptide from PLk1 PBD (unknown origin) expressed in bacterial expression system incubated for 10 mins by fluorescence polarization assay
T1 sequence (P53350 whole entry): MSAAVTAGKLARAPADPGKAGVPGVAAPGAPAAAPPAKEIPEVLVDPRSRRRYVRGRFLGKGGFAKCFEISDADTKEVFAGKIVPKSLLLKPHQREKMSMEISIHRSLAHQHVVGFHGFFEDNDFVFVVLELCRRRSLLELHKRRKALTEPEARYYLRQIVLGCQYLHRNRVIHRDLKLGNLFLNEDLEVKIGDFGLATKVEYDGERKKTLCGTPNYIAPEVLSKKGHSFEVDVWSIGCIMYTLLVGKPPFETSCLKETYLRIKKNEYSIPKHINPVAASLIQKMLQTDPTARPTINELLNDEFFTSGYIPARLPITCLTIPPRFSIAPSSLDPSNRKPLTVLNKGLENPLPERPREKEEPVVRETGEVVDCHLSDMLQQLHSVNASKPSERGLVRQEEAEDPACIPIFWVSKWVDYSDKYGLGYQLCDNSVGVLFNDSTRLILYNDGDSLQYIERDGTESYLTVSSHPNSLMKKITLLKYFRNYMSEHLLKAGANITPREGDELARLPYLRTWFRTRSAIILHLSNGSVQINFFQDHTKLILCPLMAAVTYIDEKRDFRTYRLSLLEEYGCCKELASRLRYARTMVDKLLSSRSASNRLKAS

HeLa [2] = experiment: Antitumor activity against human Hela cells xenografted in Balb/c nu nu mouse assessed as decrease in tumor size at 5 mg/kg, iv for 29 days; format: functional, organism-based; details: time 29.0 day
HeLa [3] = experiment: Induction of apoptosis in human Hela cells assessed as dead cells at 100 nM after 48 hrs by fluorescence microscope analysis relative to control; format: functional
[4] = Toxicity in Balb/c nu nu mouse xenografted with human Hela cells assessed as changed in body weight at 5 mg/kg, iv for 29 days; format: organism-based; details: in vivo, 696 h, time 29 day
HeLa [5] = experiment: Induction of apoptosis in human Hela cells assessed as dead cells at 100 nM after 24 hrs by fluorescence microscope analysis relative to control; format: functional
HeLa [6] = experiment: Induction of cell cycle arrest in human Hela cells assessed as number of cells at G0/G1 phase at 100 nM after 24 hrs by flow cytometry analysis (reference value: 74.14%); format: functional
HeLa [7] = experiment: Induction of cell cycle arrest in human Hela cells assessed as number of cells at G2/M phase at 100 nM after 24 hrs by flow cytometry analysis (reference value: 18%); format: functional
HeLa [8] = experiment: Induction of cell cycle arrest in human Hela cells assessed as number of cells at S phase at 100 nM after 24 hrs by flow cytometry analysis (reference value: 7.86%); format: functional
[9] = molecular target: T1, Serine/threonine-protein kinase PLK1; experiment: Inhibition of PLK1 PBD interaction with p-Cdc25c in human Hela cells assessed as decrease in phosphorylated Cdc25c co-preciptated with GST-PLK1 PBD by pull down assay; format: cell-based
[10] = molecular target: Serine/threonine-protein kinase PLK3 (Homo sapiens, UniProt Q9H4B4); experiment: Displacement of 5-carboxyfluorescein-labeled PBD-binding peptide from PLk3 PBD (unknown origin) expressed in bacterial expression system incubated for 10 mins by fluorescence polarization assay
Serine/threonine-protein kinase PLK3, sequence (Q9H4B4 whole entry): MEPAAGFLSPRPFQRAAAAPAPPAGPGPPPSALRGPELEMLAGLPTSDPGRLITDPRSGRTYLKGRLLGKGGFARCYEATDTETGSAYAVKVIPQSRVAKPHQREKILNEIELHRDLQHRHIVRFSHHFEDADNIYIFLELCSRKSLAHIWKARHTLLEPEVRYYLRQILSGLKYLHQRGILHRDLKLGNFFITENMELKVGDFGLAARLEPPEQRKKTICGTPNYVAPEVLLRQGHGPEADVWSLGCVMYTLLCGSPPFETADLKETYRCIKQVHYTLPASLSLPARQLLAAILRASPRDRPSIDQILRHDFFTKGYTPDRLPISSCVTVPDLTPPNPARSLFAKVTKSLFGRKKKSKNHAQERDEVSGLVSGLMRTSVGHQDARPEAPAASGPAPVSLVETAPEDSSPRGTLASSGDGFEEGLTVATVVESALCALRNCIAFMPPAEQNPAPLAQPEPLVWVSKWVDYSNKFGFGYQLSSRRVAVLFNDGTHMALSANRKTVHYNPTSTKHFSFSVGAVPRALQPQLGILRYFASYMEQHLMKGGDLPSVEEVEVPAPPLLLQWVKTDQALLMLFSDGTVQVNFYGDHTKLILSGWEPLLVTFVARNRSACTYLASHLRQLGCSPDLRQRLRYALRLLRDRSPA

HeLa [11] = experiment: Induction of cell cycle arrest in human Hela cells assessed as number of cells at G0/G1 phase at 200 uM after 24 hrs by flow cytometry analysis (reference value: 74.14%); format: functional
[12] = Ratio of drug uptake in BALB/c nu/nu mouse xenografted with Hela cells tumor to muscle using Cy5-conjugated compound at 5 mg/kg, iv measured after 30 hrs by fluorescence microscopic analysis; format: ADME, organism-based; details: in vivo
[13] = Ratio of drug uptake in BALB/c nu/nu mouse xenografted with Hela cells tumor to muscle using Cy5-conjugated compound at 5 mg/kg, iv measured after 24 hrs by fluorescence microscopic analysis; format: ADME, organism-based; details: in vivo
HeLa [14] = experiment: Induction of cell cycle arrest in human Hela cells assessed as number of cells at G2/M phase at 200 uM after 24 hrs by flow cytometry analysis (reference value: 18%); format: functional
[15] = Clearance in ICR mouse at 5 mg/kg, iv measured upto 24 hrs by LC/MS/MS analysis; format: ADME, organism-based; details: in vivo
[16] = Volume of distribution at steady state in ICR mouse at 5 mg/kg, iv measured upto 24 hrs by LC/MS/MS analysis; format: ADME, organism-based; details: in vivo
[17] = Half life in ICR mouse at 5 mg/kg, iv measured upto 24 hrs by LC/MS/MS analysis; format: ADME, organism-based; details: in vivo
HeLa [18] = experiment: Induction of cell cycle arrest in human Hela cells assessed as number of cells at S phase at 200 uM after 24 hrs by flow cytometry analysis (reference value: 7.86%); format: functional
[19] = Drug uptake in human Hela cells using Cy5-conjugated compound at 200 uM after 18 hrs by fluorescence microscopic analysis; format: ADME, cell-based
[20] = Ratio of drug uptake in BALB/c nu/nu mouse xenografted with Hela cells tumor to muscle using Cy5-conjugated compound at 5 mg/kg, iv measured after 6 hrs by fluorescence microscopic analysis; format: ADME, organism-based; details: in vivo
[21] = Drug uptake in tumor of BALB/c nu/nu mouse xenografted with Hela cells using Cy5-conjugated compound at 5 mg/kg, iv measured after 48 hrs by fluorescence microscopic analysis; format: ADME, organism-based, Neoplasm; details: in vivo
Homo sapiens = species: Homo sapiens; experiment: Selectivity ratio for binding affinity for PLK2 PBD (unknown origin) to binding affinity for PLK1 PBD (unknown origin)
HeLa [22] = experiment: Induction of apoptosis in human Hela cells assessed as dead cells at 200 uM after 48 hrs by fluorescence microscope analysis relative to control; format: functional
[23] = AUClast in ICR mouse at 5 mg/kg, iv measured upto 24 hrs by LC/MS/MS analysis; format: ADME, organism-based; parameters: route intravenous, dose 5 mg/kg, time <=24; details: in vivo
[24] = molecular target: T1, Serine/threonine-protein kinase PLK1; experiment: Inhibition PLK1 localization in mitotic kinetochore in human Hela cells at 200 uM after 18 hrs by immunofluorescence analysis relative to control; format: cell-based
HeLa [25] = experiment: Induction of apoptosis in human Hela cells assessed as dead cells at 200 uM after 24 hrs by fluorescence microscope analysis relative to control; format: functional
[26] = Drug uptake in muscle of BALB/c nu/nu mouse xenografted with Hela cells using Cy5-conjugated compound at 5 mg/kg, iv measured after 48 hrs by fluorescence microscopic analysis; format: ADME, organism-based, Muscle tissue; details: in vivo
[27] = Mean residence time in ICR mouse at 5 mg/kg, iv measured upto 24 hrs by LC/MS/MS analysis; format: ADME, organism-based; details: in vivo
[28] = AUC(infinity) in ICR mouse at 5 mg/kg, iv measured upto 24 hrs by LC/MS/MS analysis; format: ADME, organism-based; parameters: route intravenous, dose 5 mg/kg, time <=24; details: in vivo
[29] = Ratio of drug uptake in BALB/c nu/nu mouse xenografted with Hela cells tumor to muscle using Cy5-conjugated compound at 5 mg/kg, iv measured after 48 hrs by fluorescence microscopic analysis; format: ADME, organism-based; details: in vivo

O=C1NC(=O)C(=Cc2cn(CCN3CCOCC3)nc2-c2ccccc2)C(=O)N1
IC50 [1]: 71 µM

CCCN1C(=O)C(=Cc2cn(-c3ccccc3)nc2-c2ccccc2)C(=O)N(CCC)C1=O
inhibition [1]: inactive

O=C1NC(=O)C(=Cc2cn(CCNC(=O)C3CCCCC3)nc2-c2ccccc2)C(=O)N1
inhibition [1]: inactive

CN1C(=O)C(=Cc2cn(-c3ccccc3)nc2-c2ccccc2)C(=O)N(C)C1=O
inhibition [1]: inactive

CC[C@@H]1C(=O)N(C)c2cnc(Nc3ccc(C(=O)NC4CCN(C)CC4)cc3OC)nc2N1C1CCCC1 [BI-2536]
Activity (HeLa [2]): Active | Activity (HeLa [3]): 91.5% | Activity [4]: Non-Toxic | Activity (HeLa [5]): 31.1% | Activity (HeLa [6]): 61.34% | Activity (HeLa [7]): 28.76% | Activity (HeLa [8]): 9.9%

O=C1NC(=O)C(=Cc2cn(Cc3cccc(OC(F)(F)F)c3)nc2-c2ccccc2)C(=O)N1
inhibition [1]: inactive

O=C1NC(=O)C(=Cc2cn(Cc3ccc(OC(F)(F)F)cc3)nc2-c2ccccc2)C(=O)N1
inhibition [1]: inactive

O=C1NC(=O)C(=Cc2cn(CCNC(=O)c3ccccc3)nc2-c2ccccc2)C(=O)N1
inhibition [1]: inactive

CNc1ccc(C(=O)NCCn2cc(C=C3C(=O)NC(=O)NC3=O)c(-c3ccccc3)n2)cc1
inhibition [9]: Active | inhibition (INH) [10]: Not Active | Activity (HeLa [11]): 54.47% | IC50 [1]: 16.4 µM | Activity (HeLa [2]): Active | Ratio [12]: 4.11 | Ratio [13]: 3.9 | Activity (HeLa [14]): 27.12% | CL [15]: 7.17 mL/min/kg | Vdss [16]: 0.31 L/kg | Activity [4]: Non-Toxic | t1/2 [17]: 7.73 h | Activity (HeLa [18]): 18.41% | Drug uptake [19]: Active | Ratio [20]: 2.1 | Drug uptake [21]: Active | Ratio (Homo sapiens): 2 | Activity (HeLa [22]): 71.1% | AUClast [23]: 11504.31 ng·h/mL | inhibition [24]: 61% | Activity (HeLa [25]): 24.6% | Drug uptake [26]: Active | MRT [27]: 0.72 h | AUC [28]: 11535.29 ng·h/mL | Ratio [29]: 4.2

O=C1NC(=O)C(=Cc2cn(CCCCc3ccccc3)nc2-c2ccccc2)C(=O)N1
inhibition [1]: Active

O=C1NC(=O)C(=Cc2cn(Cc3ccccc3)nc2-c2ccccc2)C(=O)N1
IC50 [1]: 52.7 µM

CSc1ccc(Cn2cc(C=C3C(=O)NC(=O)NC3=O)c(-c3ccccc3)n2)cc1
inhibition [1]: inactive

O=C1C(=Cc2cn(-c3ccccc3)nc2-c2ccccc2)C(=O)N(CCc2ccccc2)C(=O)N1CCc1ccccc1
inhibition [1]: inactive

CC[C@H](C)[C@H](NC(=O)[C@H](C)NC(=O)[C@@H](NC(=O)[C@H](CO)NC(=O)[C@H](Cc1cnc[nH]1)NC(=O)[C@H](CC(C)C)NC(=O)[C@@H]1CCCN1C(C)=O)[C@@H](C)OP(=O)(O)O)C(=O)N[C@@H](Cc1ccc(O)cc1)C(=O)N[C@@H](C)C(N)=O (Ac-PLHS[pT]AIYA-NH2)
IC50 [1]: 0.23 µM

O=C1NC(=O)C(=Cc2cn(-c3ccccc3)nc2-c2ccccc2)C(=O)N1
IC50 [1]: 32.2 µM

CS(=O)(=O)c1ccc(C(=O)NCCn2cc(C=C3C(=O)NC(=O)NC3=O)c(-c3ccccc3)n2)cc1
inhibition [1]: inactive

— ChEMBL document CHEMBL4699619, “Development of a Polo-like Kinase-1 Polo-Box Domain Inhibitor as a Tumor Growth Suppressor in Mice Models” (J Med Chem, 2020)
